Measured values taken from patent US4593093A, “Acyl derivatives” (priority 1980, dated 1986).
Structures can show the parent of a compound that is named as a salt. Where two headings read alike, the source gives them in different places.

Assays:
Enterobacter aerogenes = test: Activity in vitro: minimum inhibitory concentration; format: cell-based; details: Klebsiella aerogenes
Klebsiella pseumoniae = test: as above; format: cell-based
Proteus rettgeri = test: as above; format: cell-based; details: Providencia rettgeri
Proteus mirabilis = test: as above; format: cell-based
Streptococcus viridans = test: as above; format: cell-based
Citrobacter freundii = test: as above; format: cell-based
Pseudomonas aeruginosa [1] = test: as above; format: cell-based
Serratia marcescens [2] = test: as above; format: cell-based
Escherichia coli [3] = test: as above; format: cell-based
Streptococcus pneumoniae = test: as above; format: cell-based
Staphylococcus epidermis = test: as above; format: cell-based
Streptococcus pyogenes [4] = test: as above; format: cell-based
Enterobacter cloacae [5] = test: as above; format: cell-based
Proteus inconstans = test: as above; format: cell-based; details: Providencia alcalifaciens
Streptococcus faecalis = test: as above; format: cell-based; details: Enterococcus faecalis
Proteus morganii = test: as above; format: cell-based; details: Morganella morganii
Escherichia coli [6] = test: Activity in vivo: survival of intraperitoneally infected mice; details: sc, 96 h; mice infected i.p. with Escherichia coli; s.c. twice, 1 h and 3 h after infection; survival on 4th day; read-out: CD50 (dosage at which 50% of the animals survive)
Description: (§1) Groups of 5 mice are infected intraperitoneally with an aqueous suspension of various pathogens. The test substance in physiological sodium chloride solution is administered subcutaneously twice, i.e. 1 hour and 3 hours after the infection. The number of surviving animals is determined on the 4th day. Various dosages are administered and that dosage at which 50% of the experimental animals survive (CD50, mg/kg) is determined by interpolation.

Streptococcus pyogenes [7] = test: as above; details: sc, 96 h; mice infected i.p. with Streptococcus pyogenes; s.c. twice, 1 h and 3 h after infection; survival on 4th day; read-out: CD50 (dosage at which 50% of the animals survive)
Description: as §1

Serratia marcescens [8] = test: as above; details: sc, 96 h, mice infected i.p. with Serratia marcescens strain 1, s.c. twice, 1 h and 3 h after infection, survival on 4th day, read-out: CD50 (dosage at which 50% of the animals survive)
Description: as §1

Enterobacter cloacae [9] = test: as above; details: sc, 96 h; mice infected i.p. with Enterobacter cloacae; s.c. twice, 1 h and 3 h after infection; survival on 4th day; read-out: CD50 (dosage at which 50% of the animals survive)
Description: as §1

Pseudomonas aeruginosa [10] = test: as above; details: sc, 96 h; mice infected i.p. with Pseudomonas aeruginosa; s.c. three times, 1 h, 3 h and 5 h after infection; survival on 4th day; read-out: CD50 (dosage at which 50% of the animals survive)
Description: as §1
*Administered subcutaneously three times: 1 hour, 3 hours and 5 hours

Staphylococcus aureus = test: Activity in vitro: minimum inhibitory concentration; format: cell-based
[11] = Enterobacter aerogenes strain 1
[12] = Enterobacter aerogenes strain 2
[13] = Pseudomonas aeruginosa strain 3
[14] = Streptococcus pyogenes strain 1, read-out: Minimum inhibitory concentration
[15] = Streptococcus faecalis strain 1
[16] = Streptococcus faecalis strain 2
[17] = read-out: Minimum inhibitory concentration, Streptococcus pyogenes strain 2

SMILES	MIC (Enterobacter aerogenes; [11]) [µg/mL]	MIC (Enterobacter aerogenes; [12]) [µg/mL]	MIC (Klebsiella pseumoniae; Klebsiella pseumoniae strain 1) [µg/mL]	MIC (Klebsiella pseumoniae; Klebsiella pseumoniae strain 2) [µg/mL]	MIC (Klebsiella pseumoniae; Klebsiella pseumoniae strain 3) [µg/mL]	MIC (Proteus mirabilis; Proteus mirabilis strain 3) [µg/mL]	MIC (Proteus mirabilis; Proteus mirabilis strain 4) [µg/mL]	MIC (Proteus mirabilis; Proteus mirabilis strain 5) [µg/mL]	MIC (Streptococcus viridans) [µg/mL]	MIC (Citrobacter freundii; Citrobacter freundii strain 1) [µg/mL]	MIC (Citrobacter freundii; Citrobacter freundii strain 2) [µg/mL]	MIC (Pseudomonas aeruginosa [1]; [13]) [µg/mL]	MIC (Serratia marcescens [2]; Serratia marcescens strain 1) [µg/mL]	MIC (Serratia marcescens [2]; Serratia marcescens strain 2) [µg/mL]	MIC (Serratia marcescens [2]; Serratia marcescens strain 3) [µg/mL]	MIC (Escherichia coli [3]; Escherichia coli strain 1) [µg/mL]	MIC (Escherichia coli [3]; Escherichia coli strain 2) [µg/mL]	MIC (Escherichia coli [3]; Escherichia coli strain 3) [µg/mL]	MIC (Escherichia coli [3]; Escherichia coli strain 5) [µg/mL]	MIC (Streptococcus pneumoniae) [µg/mL]	other results
CC(=O)OCC1=C(C(=O)O)N2C(=O)[C@@H](NC(=O)/C(=N\OC(C)(C)C(=O)O)c3c[se]c(N)n3)[C@H]2SC1 [Product I, disodium salt]	0.4	0.2	0.8	0.4	0.8	0.1	0.1	0.2	6.3	100	1.6	1.6	1.6	3.1	0.4	1.6	0.2	0.8	0.4	0.2	MIC (Proteus rettgeri): 0.1 µg/mL; MIC (Staphylococcus epidermis): 50 µg/mL; MIC (Streptococcus pyogenes [4]; [14]): 0.2 µg/mL; MIC (Streptococcus pyogenes [4]; Streptococcus pyogenes strain 2, read-out: Minimum inhibitory concentration): 0.05 µg/mL; MIC (Enterobacter cloacae [5]; Enterobacter cloacae strain 1): > 100 µg/mL; MIC (Enterobacter cloacae [5]; Enterobacter cloacae strain 2): 6.3 µg/mL; MIC (Enterobacter cloacae [5]; Enterobacter cloacae strain 3): > 100 µg/mL; MIC (Proteus inconstans): 0.012 µg/mL; MIC (Streptococcus faecalis; [15]): > 100 µg/mL; MIC (Streptococcus faecalis; [16]): > 100 µg/mL; MIC (Proteus morganii): 0.8 µg/mL; ED50 (Escherichia coli [6]): 0.067 mg/kg; ED50 (Streptococcus pyogenes [7]): 2.7 mg/kg; ED50 (Serratia marcescens [8]): 1.8 mg/kg; ED50 (Enterobacter cloacae [9]): > 50 mg/kg; ED50 (Pseudomonas aeruginosa [10]): 23 mg/kg; MIC (Staphylococcus aureus; Staphylococcus aureus strain 1): 50 µg/mL; MIC (Staphylococcus aureus; Staphylococcus aureus strain 2): 100 µg/mL; MIC (Staphylococcus aureus; Staphylococcus aureus strain 3): 50 µg/mL; MIC (Staphylococcus aureus; Staphylococcus aureus strain 4): 100 µg/mL
CC(C)(O/N=C(\C(=O)N[C@@H]1C(=O)N2C(C(=O)[O-])=C(C[n+]3ccccc3)CS[C@H]12)c1c[se]c(N)n1)C(=O)O [Product K, 1-[[(6R, 7R)-7-[(Z)-2-(2-amino-4-selenazolyl)-2-[(1-carboxy-1-methylethoxy)imino]acetamido]-2-carboxy-8-oxo-5-thia-1-azabicyclo[4.2.0]oct-2-en-3-yl]methyl]pyridinium hydroxide sodium salt (internal salt)]	0.4	0.2	0.8	0.2	0.8	0.4	0.1	0.05	3.1	12.5	0.4	1.6	0.8	0.8	0.1	0.4	0.1	0.8	0.4	0.1	MIC (Escherichia coli [3]; Escherichia coli strain 4): 25 µg/mL; MIC (Staphylococcus epidermis): 12.5 µg/mL; MIC (Streptococcus pyogenes [4]; [14]): 0.4 µg/mL; MIC (Streptococcus pyogenes [4]; [17]): 0.1 µg/mL; MIC (Enterobacter cloacae [5]; Enterobacter cloacae strain 1): > 100 µg/mL; MIC (Enterobacter cloacae [5]; Enterobacter cloacae strain 2): 1.6 µg/mL; MIC (Enterobacter cloacae [5]; Enterobacter cloacae strain 3): 100 µg/mL; MIC (Proteus inconstans): 0.05 µg/mL; MIC (Streptococcus faecalis; [15]): > 100 µg/mL; MIC (Streptococcus faecalis; [16]): > 100 µg/mL; MIC (Proteus morganii): 0.2 µg/mL; ED50 (Streptococcus pyogenes [7]): 0.28 mg/kg; ED50 (Serratia marcescens [8]): 0.11 mg/kg; ED50 (Pseudomonas aeruginosa [10]): 1.1 mg/kg; MIC (Staphylococcus aureus; Staphylococcus aureus strain 1): 12.5 µg/mL; MIC (Staphylococcus aureus; Staphylococcus aureus strain 2): 50 µg/mL; MIC (Staphylococcus aureus; Staphylococcus aureus strain 3): 12.5 µg/mL; MIC (Staphylococcus aureus; Staphylococcus aureus strain 4): 12.5 µg/mL
CC(=O)OCC1=C(C(=O)[O-])N2C(=O)[C@@H](NC(=O)/C(=N\O)c3c[se]c(N)n3)[C@H]2SC1.[Na+] [Product L, (6R, 7R)-3-(acetoxymethyl)-7-[2-(2-amino-4-selenazolyl)-2-[(Z)-hydroxyimino]-acetamido]-8-oxo-5-thia-1-azabicyclo[4.2.0]oct-2-ene-2-carboxylic acid sodium salt]	≤ 0.025	0.4	≤ 0.025	≤ 0.025	≤ 0.025	≤ 0.025	0.05	0.05	0.8	3.1	0.025	12.5	0.8	1.6	0.1	≤ 0.025	≤ 0.025	1.6	0.1	0.1	MIC (Pseudomonas aeruginosa [1]; Pseudomonas aeruginosa strain 1): 50 µg/mL; MIC (Escherichia coli [3]; Escherichia coli strain 4): 6.3 µg/mL; MIC (Staphylococcus epidermis): 0.4 µg/mL; MIC (Streptococcus pyogenes [4]; [14]): 0.05 µg/mL; MIC (Streptococcus pyogenes [4]; [17]): ≥ 0.025 µg/mL; MIC (Enterobacter cloacae [5]; Enterobacter cloacae strain 1): 200 µg/mL; MIC (Enterobacter cloacae [5]; Enterobacter cloacae strain 2): 6.3 µg/mL; MIC (Enterobacter cloacae [5]; Enterobacter cloacae strain 3): 25 µg/mL; MIC (Proteus inconstans): ≤ 0.025 µg/mL; MIC (Streptococcus faecalis; [15]): 25 µg/mL; MIC (Streptococcus faecalis; [16]): 25 µg/mL; MIC (Proteus morganii): 0.4 µg/mL; ED50 (Streptococcus pyogenes [7]): 0.08 mg/kg; MIC (Staphylococcus aureus; Staphylococcus aureus strain 1): 0.2 µg/mL; MIC (Staphylococcus aureus; Staphylococcus aureus strain 2): 0.4 µg/mL; MIC (Staphylococcus aureus; Staphylococcus aureus strain 3): 0.4 µg/mL; MIC (Staphylococcus aureus; Staphylococcus aureus strain 4): 0.4 µg/mL
